Experimental data as given in US8452543B2, “High throughput screening for antimicrobial dosing regimens” (priority 2005, dated 2013).
≈ marks a conversion by molar mass, not a printed value. Where two headings read alike, the source gives them in different places.

How the values were obtained:
Format in all cases: cell-based, Pseudomonas aeruginosa
[1] = system: P. aeruginosa ATCC 27853; assay: MIC/MBC, modified macrobroth dilution
Protocol: (§1) The final concentration of bacteria in each macrobroth dilution tube was approximately 5×10^5 cfu/ml of Ca-MHB. Serial twofold dilutions of meropenem were used. […] Samples (50 μl) from clear tubes and the cloudy tube with the highest drug concentration were plated on Mueller-Hinton agar (MHA) plates (Hardy Diagnostics, Santa Maria, Calif.). […] Drug carry-over effect was assessed by visual inspection of the distribution of colonies on media plates. The studies were conducted in duplicate and repeated at least once on a separate day.

[2] = system: P. aeruginosa ATCC 27853; assay: Time-kill studies and growth dynamics model, meropenem; settings: for EC50: read-out: Ck50 (the source's name)
Protocol: Time-kill studies were conducted with different and escalating meropenem concentrations. […] An overnight culture of the isolate was diluted 30-fold with pre-warmed Ca-MHB and incubated further at 35 8 C until reaching late log phase growth. The bacterial suspension was diluted with Ca-MHB accordingly based on absorbance at 630 nm; 15 mL of the suspension was transferred to 50 mL sterile conical flasks each containing 1 mL of an antimicrobial agent solution at 16 the target concentration. The final concentration of the bacterial suspension in each flask was 1×10^8 cfu/mL. The high inoculum used was to simulate the bacterial load in severe infection, and to allow resistant sub-population(s) to be present at baseline. The experiment was conducted for 24 h in a shaker water bath set at 35 8 C. Serial samples in duplicate were obtained from each flask over 24 h, at 0 (baseline), 2, 4, 8, 12, and 24 h, to characterize the effect of various meropenem concentrations on the total bacterial population. Prior to culturing the bacteria quantitatively, the bacterial samples (0.5 mL) were centrifuged at 10000 g for 15 min, and reconstituted with sterile normal saline to their original volumes in order to minimize drug carry-over effect. Total bacterial populations were quantified by spiral plating 10 serial dilutions of the samples ([…]) onto MHA plates. The media plates were incubated in a humidified incubator (35 8 C) for 18-24 h, and the bacterial density from each sample was determined by CASBA-4 colony scanner/software (Spiral Biotech, Bethesda, Md., USA). The theoretical lower limit of detection was 400 cfu/mL.
The time courses of bacterial burden under different drug exposures is described using a mathematical model. The population balance for a bacterial population is determined by: Rate of change of bacterial population over time=intrinsic growth rate−kill rate by antimicrobial agent or
In contrast to the conventional approach in which the final observed effects are modelled, information over time was utilized to develop a dynamic model system that would capture bacterial growth/killing rates. The starting point was a mathematical model describing the time course of bacterial burden [biological response, N(t)] under the influence of various antimicrobial agent concentrations C(t). The rate of change of bacteria over time was expressed as the difference between the intrinsic bacterial growth rate and the kill rate provided by the antimicrobial agent (Eq. 35). Based on previous studies, a linear bacterial growth rate was adopted. Additional model parameters were used to account for other physiological phenomena such as contact inhibition (using a maximum population size) and non-linear (sigmoidal) kill rate to account for target site saturation. Regrowth was attributed to adaptation, which was explicitly modelled as increase in the concentration necessary to achieve 50% maximal kill rate (C50k), using a saturable function of antimicrobial agent selective pressure (both meropenem concentration and time) (Eq. 36).
The experimental data derived from the time-kill studies were analysed by population analysis, using the non-parametric adaptive grid (NPAG) program (28). The killing profile observed with each meropenem concentration was input as a subject in the population analysis. The search algorithm sought the combination of parameter values and their distributions that would have the highest likelihood of explaining the observations made with all the meropenem concentrations in a single step (as opposed to fixing some parameter estimates sequentially while estimating the others). The explicit assumption was made that overall observation variance was proportional to variance of the measurement, i.e. quantitative cultures. The proportionality constant g was optimized with each cycle of the analysis.

[3] = system: P. aeruginosa PA 27853 and resistant isolates MR1, MR2, MR3; assay: microbe, parasite or virus in culture; settings: for MIC: Pseudomonas aeruginosa
Protocol: as §1, with “Minimum inhibitory concentration (MIC)/minimum bactericidal concentration (MBC) were determined in Ca-MHB using a modified macrobroth dilution method as described by the CLSI (10). The final” for “The final”

[4] = Mean of the parameter estimates

**Q.** How did the MBC ([1]; Pseudomonas aeruginosa, ATCC27853, P. aeruginosa isolate, read-out: MBC) turn out when `C[C@@H](O)[C@H]1C(=O)N2C(C(=O)O)=C(S[C@@H]3CN[C@H](C(=O)N(C)C)C3)[C@H](C)[C@H]12` [meropenem] was run?
**A.** The MBC was 1 µg/mL (≈ 2.61 µM).

**Q.** What about the MIC ([1]; Pseudomonas aeruginosa, ATCC27853, P. aeruginosa isolate, read-out: MIC) of the same compound?
**A.** The MIC was 1 µg/mL (≈ 2.61 µM).

**Q.** And the MIC ([1]; wild-type isolate used in vivo)?
**A.** Its MIC is 1 µg/mL (≈ 2.61 µM).

**Q.** And the regrowth ([2]; 0.25 MIC and 1 MIC, between 12 and 24 h)?
**A.** The regrowth was “Regrowth was observed”.

**Q.** And the Kg [2, 4]?
**A.** Its Kg is 4.71 h − 1.

**Q.** What about the Kg ([2]; meropenem Concn 0.25 mg/L) of the same compound?
**A.** The Kg was 9.60 h − 1.

**Q.** And the Kg ([2]; meropenem Concn 1 mg/L)?
**A.** Its Kg is 4.08 h − 1.

**Q.** What about the Kg ([2]; meropenem Concn 4 mg/L) of the same compound?
**A.** The Kg was 3.12 h − 1.

**Q.** What about the Kg ([2]; meropenem Concn 16 mg/L) of the same compound?
**A.** The Kg was 3.41 h − 1.

**Q.** And the Kg ([2]; meropenem Concn 64 mg/L)?
**A.** Its Kg is 3.95 h − 1.

**Q.** What about the H [2, 4] of the same compound?
**A.** The H was 2.83.

**Q.** And the β [2, 4]?
**A.** Its β is 5.85.

**Q.** What about the τ [2, 4] of the same compound?
**A.** Its τ is 158 µL/min/mg.

**Q.** What about the MIC ([2]; Pseudomonas aeruginosa, ATCC27853, 24 h, validation time-kill, meropenem at 2 MIC, read-out: MIC of the entire bacterial population at 24 h) of the same compound?
**A.** The MIC was greater than 1 µg/mL.

**Q.** What about the EC50 ([2]; Pseudomonas aeruginosa, ATCC27853, Mean of the parameter estimates) of the same compound?
**A.** Its EC50 is 2.29 µg/mL.

**Q.** And the EC50 ([2]; Pseudomonas aeruginosa, ATCC27853, meropenem Concn 0.25 mg/L)?
**A.** The EC50 was 0.44 µg/mL.

**Q.** And the EC50 ([2]; Pseudomonas aeruginosa, ATCC27853, meropenem Concn 1 mg/L)?
**A.** Its EC50 is 3.53 µg/mL.

**Q.** And the EC50 ([2]; Pseudomonas aeruginosa, ATCC27853, meropenem Concn 4 mg/L)?
**A.** The EC50 was 0.74 µg/mL.

**Q.** And the EC50 ([2]; Pseudomonas aeruginosa, ATCC27853, meropenem Concn 16 mg/L)?
**A.** Its EC50 is 2.61 µg/mL.

**Q.** And the EC50 ([2]; Pseudomonas aeruginosa, ATCC27853, meropenem Concn 64 mg/L)?
**A.** The EC50 was 2.9 µg/mL.

**Q.** And the “concentration necessary to attain 80% maximal kill rate (C80k)” value ([2]; at baseline)?
**A.** Its value is 3.8 mg/L.

**Q.** What about the “concentration necessary to attain 90% maximal kill rate (C90k)” value ([2]; at baseline) of the same compound?
**A.** Its value is 5.0 mg/L.

**Q.** What about the H ([2]; meropenem Concn 0.25 mg/L) of the same compound?
**A.** The H was 3.81.

**Q.** And the β ([2]; meropenem Concn 0.25 mg/L)?
**A.** Its β is 3.79.

**Q.** What about the τ ([2]; meropenem Concn 0.25 mg/L) of the same compound?
**A.** Its τ is 350 µL/min/mg.

**Q.** What about the H ([2]; meropenem Concn 1 mg/L) of the same compound?
**A.** The H was 1.48.

**Q.** What about the β ([2]; meropenem Concn 1 mg/L) of the same compound?
**A.** Its β is 6.64.

**Q.** And the τ ([2]; meropenem Concn 1 mg/L)?
**A.** Its τ is 183 µL/min/mg.

**Q.** And the H ([2]; meropenem Concn 4 mg/L)?
**A.** Its H is 1.67.

**Q.** What about the β ([2]; meropenem Concn 4 mg/L) of the same compound?
**A.** The β was 4.48.

**Q.** And the τ ([2]; meropenem Concn 4 mg/L)?
**A.** Its τ is 115 µL/min/mg.

**Q.** And the H ([2]; meropenem Concn 16 mg/L)?
**A.** The H was 7.74.

**Q.** And the β ([2]; meropenem Concn 16 mg/L)?
**A.** Its β is 4.85.

**Q.** What about the τ ([2]; meropenem Concn 16 mg/L) of the same compound?
**A.** Its τ is 85 µL/min/mg.

**Q.** And the H ([2]; meropenem Concn 64 mg/L)?
**A.** The H was 0.79.

**Q.** What about the β ([2]; meropenem Concn 64 mg/L) of the same compound?
**A.** The β was 8.70.

**Q.** What about the τ ([2]; meropenem Concn 64 mg/L) of the same compound?
**A.** Its τ is 23.3 µL/min/mg.

**Q.** And the “drop in bacterial burden at 24 h” value ([2]; meropenem concentrations 4 MIC (4 mg/L))?
**A.** Its value is greater than 2 log.

**Q.** And the “concentration at which initial killing appeared maximized” value ([2]; time-kill)?
**A.** Its value is 4 MIC.

**Q.** What about the killing profile ([2]; time-kill) of the same compound?
**A.** The killing profile was “partially concentration-dependent”.

**Q.** And the regrowth ([2]; validation time-kill, meropenem at 2 MIC)?
**A.** The regrowth was “regrowth”.

**Q.** What about the regrowth ([2]; validation time-kill, meropenem at 32 MIC) of the same compound?
**A.** Its regrowth is “no regrowth was observed”.

**Q.** What about the MIC ([3]; OprD− isolate used in vivo) of the same compound?
**A.** The MIC was 4 µg/mL (≈ 10.4 µM).

**Q.** What about the MIC ([3]; strain MR1 (Placebo exposure, OprD−), macrobroth method) of the same compound?
**A.** The MIC was 4 µg/mL (≈ 10.4 µM).

**Q.** What about the MIC ([3]; strain MR2 (Cmin/MIC 0.5, OprD− & Mex+), macrobroth method) of the same compound?
**A.** The MIC was 64 µg/mL (≈ 167 µM).

**Q.** And the MIC ([3]; strain MR3 (Cmin/MIC 1.7, OprD− & Mex+), macrobroth method, read-out: MIC)?
**A.** The MIC was 32 µg/mL (≈ 83.4 µM).

**Q.** What about the MIC ([3]; strain PA 27853, macrobroth method) of the same compound?
**A.** The MIC was 1 µg/mL (≈ 2.61 µM).

**Q.** What about the stability of resistance ([3]; resistant isolates recovered from MEM-supplemented plates) of the same compound?
**A.** The stability of resistance was “phenotypically stable”.
